Test results: US11318149B2, “Compositions and methods for inhibiting biofilm-forming bacteria” (Board of Trustees of Michigan State University, priority 2018, dated 2022)
Values after ≈ are worked out from the molar mass of the structure shown. Read-outs that look alike come from different tables or passages of the source.

Tests used:
Assay type in all cases: cell-based, Pseudomonas aeruginosa
24-hr old PAO1 biofilms = assay: Biofilm susceptibility testing (MBEC assay, BacTiter-Glo); conditions: for time required to show antimicrobial activity: 24-hr biofilms, melittin 100 μM, tobramycin 400 μM; for number of viable cells within the biofilms (BacTiter-Glo), mean / percent of cells within 24-hr biofilms killed / fold reduction of viable cells versus untreated biofilm / percent of P. aeruginosa cells in the biofilm killed: 6-hrs; for fold reduction of viable cells versus untreated biofilm / percent of P. aeruginosa cells in the biofilm killed: oxyclozanide 100 μM, tobramycin 500 μM, gentamicin/streptomycin/tetracycline 100 μM, alone or in combination; for time killing curve result at 2 and 4 hrs, single agent: oxyclozanide or tobramycin alone; for EC50: Pseudomonas aeruginosa, read-out: half effective concentration 50 (EC50) of tobramycin; for onset of action: time killing curves, antibiotic alone or with oxyclozanide (100 μM)
Experimental: (§1) To measure antimicrobial susceptibility of biofilms, the MBEC™ assay was used (Innovotech) as previously described. This assay consists of a lid with 96 polystyrene pegs used to grow biofilms. Briefly, an overnight culture was washed and diluted to an OD600 of 0.001 and seeded into a MBEC™ plate. To grow biofilms, the plate was then incubated for 24-hrs at 35° C. in a humidified chamber with agitation at 150 RPM. After 24-hrs, the lid was then transferred to a 96-well plate filled with DPBS and washed for 5-mins to remove non-adherent cells. The lid was transferred to the 96-well treatment plate and incubated for the indicated time points at 35° C. without agitation. After the incubation, the MBEC™ lid was washed and transferred to a black 96-well ViewPlate (PerkinElmer) filled with BacTiter-Glo™ to enumerate cell viability and then luminescence was measured using a EnVison Multilabel Plate Reader (PerkenElmer, Waltham, Mass.). Percent killing was calculated as:
[formula] Dose response curves were performed in the same manner. Crystal Violet Staining
Time killing curves were performed by growing 24-hr old biofilms on MBEC™ plates as previously described. Briefly, 100 μM of oxyclozanide and 500 μM of tobramycin were used to test for synergy at high concentrations of tobramycin, mirroring what is done clinically. The peg-lid was briefly washed in DPBS to remove non-adherent cells and transferred to a treatment plate and incubated at 35° C. for 8-hrs. At 0, 2, 4, 6, and 8-hrs pegs were collected and BacTiter-Glo™ was used to determine cell viability.

[1] = system: P. aeruginosa planktonically grown cells; assay: microbe, parasite or virus in culture
Experimental: To measure antimicrobial susceptibility of planktonic cells, MICs were determined using the broth microdilution technique, as described previously. Briefly, microdilutions were made in a 96-well plate in 1% MHB diluted in Dulbecco's Phosphate Buffered Saline with magnesium and calcium (DPBS, Sigma-Aldrich). Cells were combined with the serial dilutions in the 96-well plate at a concentration of ˜[…] CFU/mL in 10% MHB. The plates were then incubated for 24-hrs at 35° C. in a humidified chamber with agitation at 150 RPM. MIC breakpoints were chosen as the minimum concentration in which no turbidity greater than background was measured (absorbance at 595 nm), using a SpectraMax M5 microplate spectrophotometer system (Molecular Devices Sunnyvale, Calif.

P. aeruginosa biofilms = assay: Crystal violet staining of biofilm biomass (biofilm dispersal); conditions: for effect on biofilm biomass / dispersal (crystal violet): six hour exposure, 50 μM-400 μM, alone and in combination
Experimental: To study biofilm dispersal under static conditions, crystal violet staining was performed as previously described. Briefly, 24-hr old biofilms formed on MBEC™ plates, as described above, were stained with crystal violet after a 6-hr incubation with oxyclozanide and tobramycin.
One possible mechanism by which oxyclozanide enhances tobramycin activity is by inducing biofilm dispersal. To test this, the ability of oxyclozanide and tobramycin to disperse P. aeruginosa biofilms was examined using crystal violet staining of the biofilm biomass after six hour exposure to dilutions of oxyclozanide or tobramycin alone and in combination from 50 μM-400 μM (FIG. 6).

[2] = system: P. aeruginosa cells within biofilms; assay: TO-PRO-3 staining for permeabilization of biofilm cells; conditions: melittin 100 μM, 2 hours
Experimental: 24-hr old biofilms were treated with melittin (100 μM), or tobramycin (400 μM), alone and in combination for 2 hours. […] Percent values indicate the average relative abundance of events within each gate normalized to the total number of events analyzed, excluding artifacts, aggregates and debris. The experiment was performed two separate times in duplicate. The results are percent averages plus the SEM. A one-way ANOVA followed by Bonferroni's multiple comparison post-hoc test was used to determine statistical significance between tobramycin versus melittin, tobramycin versus the combination, and melittin versus the combination(*, p<0.05).

[3] = system: P. aeruginosa clinical isolates from CF patients grown in biofilms; assay: Biofilm susceptibility of CF clinical isolates (MBEC, BacTiter-Glo); conditions: 100 μM oxyclozanide; 6-hrs
Experimental: 24-hr old biofilms grown on MBEC plates were treated with oxyclozanide (100 μM), or tobramycin (500 μM), alone and in combination for 6-hrs. The number of viable cells within the biofilms were quantified by BacTiter-Glo™. The assay was performed three times in triplicate. The results represent means plus the SEM. A one-way ANOVA followed by Bonferroni's multiple comparison post-hoc test was used to determine statistical significance compared to tobramycin alone (*, p<0.05, NS, not significant).
as §1, with “The lid was transferred to the 96-well treatment plate and incubated for the indicated time points at 35° C. without agitation.” left out, “as: […]” for “as:”

[4] = Pseudomonas aeruginosa, read-out: Minimum Inhibitory Concentrations (MIC), +Melittin
[5] = Pseudomonas aeruginosa, read-out: Minimum Inhibitory Concentrations (MIC), Alone

CC[C@H](C)[C@H](NC(=O)CN)C(=O)NCC(=O)N[C@@H](C)C(=O)N[C@H](C(=O)N[C@@H](CC(C)C)C(=O)N[C@@H](CCCCN)C(=O)N[C@H](C(=O)N[C@@H](CC(C)C)C(=O)N[C@H](C(=O)N[C@H](C(=O)NCC(=O)N[C@@H](CC(C)C)C(=O)N1CCC[C@H]1C(=O)N[C@@H](C)C(=O)N[C@@H](CC(C)C)C(=O)N[C@H](C(=O)N[C@@H](CO)C(=O)N[C@@H](Cc1c[nH]c2ccccc12)C(=O)N[C@H](C(=O)N[C@@H](CCCCN)C(=O)N[C@@H](CCCNC(=N)N)C(=O)N[C@@H](CCCCN)C(=O)N[C@@H](CCCNC(=N)N)C(=O)N[C@@H](CCC(N)=O)C(=O)N[C@@H](CCC(N)=O)C(N)=O)[C@@H](C)CC)[C@@H](C)CC)[C@@H](C)O)[C@@H](C)O)C(C)C)C(C)C [melittin]
time required to show antimicrobial activity (24-hr old PAO1 biofilms): 2 h | number of viable cells within the biofilms (BacTiter-Glo), mean (24-hr old PAO1 biofilms; Tobramycin 0 μM, Melittin 12.5 μM): 5.18E5 | number of viable cells within the biofilms (BacTiter-Glo), mean (24-hr old PAO1 biofilms; Tobramycin 0 μM, Melittin 25 μM): 4.22E5 | number of viable cells within the biofilms (BacTiter-Glo), mean (24-hr old PAO1 biofilms; Tobramycin 0 μM, Melittin 50 μM): 2.87E5 | number of viable cells within the biofilms (BacTiter-Glo), mean (24-hr old PAO1 biofilms; Tobramycin 0 μM, Melittin 100 μM): 2.51E4 | Minimum Inhibitory Concentrations (MIC), Alone [1]: 62.5 to 200 µM | biofilm dispersal (crystal violet) (P. aeruginosa biofilms; 24-hr biofilms treated for 6-hrs): significant biofilm dispersal | permeabilization of cells (TO-PRO-3) [2]: causes permeabilization

O=C(Nc1cc(Cl)cc(Cl)c1O)c1c(O)c(Cl)cc(Cl)c1Cl [oxyclozanide]
percent of cells within 24-hr biofilms killed (24-hr old PAO1 biofilms; 400 μM of each agent): ~80% | fold reduction of viable cells versus untreated biofilm (24-hr old PAO1 biofilms): about 2 fold | percent of P. aeruginosa cells in the biofilm killed (24-hr old PAO1 biofilms): 44% | percent of cells within 24-hr biofilms killed (24-hr old PAO1 biofilms; oxyclozanide alone between 25 and 200 μM): 20-40% | time killing curve result at 2 and 4 hrs, single agent (24-hr old PAO1 biofilms): no significant killing | effect on the minimum inhibitory concentration of tobramycin, gentamicin, streptomycin, or tetracycline ([1]; planktonically grown cells): no effect | effect on biofilm biomass / dispersal (crystal violet) (P. aeruginosa biofilms): did not impact biofilm biomass | sensitivity of six clinical isolates to treatment alone [3]: modest sensitivity

[H]/N=C(/N)N[C@H]1[C@H](O)[C@@H](O)[C@H](O[C@@H]2O[C@@H](C)[C@](O)(C=O)[C@H]2O[C@@H]2O[C@@H](CO)[C@H](O)[C@@H](O)[C@@H]2NC)[C@@H](N/C(N)=N\[H])[C@@H]1O [streptomycin]
delay in killing activity against 24-hr old biofilms (24-hr old PAO1 biofilms; antibiotic alone, 100 μM): did not show a delay | MIC [1, 4]: 25 to 50 µM (≈ 14.5 to 29.1 µg/mL) | MIC [1, 5]: 25 to 50 µM (≈ 14.5 to 29.1 µg/mL)

NC[C@H]1O[C@H](O[C@H]2[C@H](O)[C@@H](O[C@H]3O[C@H](CO)[C@@H](O)[C@H](N)[C@H]3O)[C@H](N)C[C@@H]2N)[C@H](N)C[C@@H]1O [tobramycin]
time required to show antimicrobial activity (24-hr old PAO1 biofilms): 6 h | EC50 (24-hr old PAO1 biofilms; PAO1, in combination with melittin): 16 µM | EC50 (24-hr old PAO1 biofilms; PAO1, tobramycin alone): 46 µM | number of viable cells within the biofilms (BacTiter-Glo), mean (24-hr old PAO1 biofilms; Tobramycin 50 μM, Melittin 0 μM): 1.82E5 | number of viable cells within the biofilms (BacTiter-Glo), mean (24-hr old PAO1 biofilms; Tobramycin 100 μM, Melittin 0 μM): 1.91E5 | number of viable cells within the biofilms (BacTiter-Glo), mean (24-hr old PAO1 biofilms; Tobramycin 200 μM, Melittin 0 μM): 2.27E5 | fold reduction of viable cells versus untreated biofilm (24-hr old PAO1 biofilms): about 2 fold | percent of P. aeruginosa cells in the biofilm killed (24-hr old PAO1 biofilms): 56% | time killing curve result at 2 and 4 hrs, single agent (24-hr old PAO1 biofilms): increase in cell number | onset of action (24-hr old PAO1 biofilms): 6 h | MIC [1, 4]: 3.12 to 6.25 µM (≈ 1.46 to 2.92 µg/mL) | MIC [1, 5]: 3.12 to 6.25 µM (≈ 1.46 to 2.92 µg/mL) | effect on biofilm biomass / dispersal (crystal violet) (P. aeruginosa biofilms): significantly reduced biofilm biomass

gentamicin
onset of action (24-hr old PAO1 biofilms): 4 h | MIC ([1]; +Melittin, read-out: Minimum Inhibitory Concentrations (MIC), +Melittin): 12.5 µM | Minimum Inhibitory Concentrations (MIC), Alone [1]: 6.25 to 12.5 µM
